Data from patent US20070037833A1, “Compositions and methods for inhibiting neurodegeneration” (priority 2005, published 2007).
Where “and” joins values, the source holds several entries; their conditions need not be identical. Equal entries are not always repeated. Entries after “also recorded” stand apart in the source; their conditions may differ.

How the values were obtained:
[1] = system: IGF receptor tyrosine kinase (IGFR); assay: Immunoblot for phospho-IGFR in spinal cord cultures; format: cell-based, rat
Protocol: (§1) Cells were lysed in 1% NP-40 lysis buffers containing protease inhibitors, subjected to SDS-PAGE and immunoblotted as previously described (Fryer et al., 1999; Fryer et al., 2000). For immunoprecipitation, lysates from 60 mm dishes were pre-cleared by incubation with protein A beads (Santa Cruz), incubated with primary antibody (4 μg/ml)×2 hours then 50 μL of beads added and incubated overnight with gentle agitation at 4° C. Beads were pelleted, washed 5× with 10 mM Tris pH 7.4+0.5 mM EGTA+0.5 mM EDTA+0.1% NP40 before elution in 1× Laemelli sample buffer. Antibody sources: BD Transduction Labs—TrkB and MAP Kinase used at 1:500, Cell Signaling—Akt 1:1000; phosphoTrk (tyr490) 1:1000; phospho p42/44 MAP Kinase (thr 202/tyr204) 1:1000; phosphoAkt (ser473) 1:500; IGFI antibody (tyr 1131) 1:500. Upstate—adenosine A2a 1:1000. Sigma—actin 1:200. Biosource—active src (clone 28) 1:200.
We followed up these observations by determining the effect of enprofylline on Trk signaling and determined the extent to which the resultant biochemical changes mimic the effects of direct pharmacological Trk antagonism with CEP4416. […] The effect of drug treatment on AKT was particularly marked. […] To determine the specificity of these agents, we examined their effect on Insulin-like growth factor 1 (IGF1) signaling through the IGF receptor tyrosine kinase (IGFR). […] It is unlikely that phosphodiesterase activity of enprofylline can explain these observations as increased cAMP levels enhance, not suppress, TrkB activation (Boulanger and Poo, 1999; Ji et al., 2005).

src-family kinases (SFK) = assay: Immunoblot for active SFKs (clone 28 antibody) in spinal cord cultures; format: cell-based, rat; details: 24 hours treatment
Protocol: as §1
The precise mechanism by which G-protein coupled receptors trans-activate receptor tyrosine kinases is complex and to some extent receptor-subtype specific (Luttrell et al., 1999; Downward, 2003; Piiper and Zeuzem, 2004; Waters et al., 2004). […] If this pathway was operative in spinal cord neurons, then antagonism of adenosine A2a receptors might lead to reduced src activation and antagonism of SFKs might be neuro-protective. Src is negatively regulated by phosphorylation of tyrosine 529 (refers to human src sequence) and an antibody that recognizes a de-phospho epitope in this region (“clone 28”) is a reliable measure of active src and SFKs (Kawakatsu et al., 1996). We began by asking for adenosine A2a receptors and active SFKs are present in the same cells and if so, their subcellular distribution. Pure motor neurons, grown in the presence of BDNF were immunostained with a rabbit anti-adenosine A2a receptor and the clone 28 antibody. One hundred percent of motor neurons expressed both antigens and on dendrites, the immunoreactivity formed discrete fine puncta (FIG. 5a). Many, but not all, puncta were stained with both antibodies. […]

[2] = system: motor neurons in embryonic rat spinal cord cultures; assay: Excitotoxicity assay (100 μM kainic acid) in mixed spinal cord cultures; format: cell-based
Protocol: Unless otherwise specified, BDNF was added to all cultures.
Many previous in vitro investigations have identified motor neurons in mixed spinal cord cell culture by immunostaining for non-phosphorylated neurofilaments (or peripherin) and restricting analysis to cells with a soma diameter of 25 μm or greater (Carriedo et al., 2000; Hu and Kalb, 2003). We wanted to confirm the validity of this approach using an independent method for determining whether a given cell is a motor neuron. To specifically identify motor neurons in our cultures we purified these cells by metrizamide gradient and immunopanning techniques (Henderson et al., 1993; Fryer et al., 1999), live-labeled them with CM-DiI, and added these fluorescently-tagged, bona fide motor neurons to mixed cell cultures at the time of initial plating. All CM-DiI labeled cells stained for motor neurons markers such as non-phosphorylated neurofilament H (using antibody, SMI-32), peripherin, choline acetyl transferase (ChAT) and islet ½ (FIG. 1, panel a.). We then subjected spinal cord cultures to an excitotoxic insult and determined motor neuron survival using multiple methods for identifying motor neurons. […] Since all SMI-32 (+) cells with cell body diameter of 25 μm or greater were CM-DiI (+) and all CM-DiI (+) cells were SMI-32 (+), for the remainder of the studies herein, we could confidently study motor neuron death in vitro by counting SMI-32 (+) cells with a cell body diameter of 25 μm or greater.

CCCn1c(=O)[nH]c(=O)c2[nH]cnc21 [enprofylline, 3-propylxanthine]
IGF1-induced IGFR phosphorylation ([1]; 24 hour pretreatment, then acute IGF1): neither CEP-4416 nor enprofylline blunted the acute response; also recorded: undiminished by 24 hour pretreatment
basal state of IGFR phosphorylation ([1]; 24 hour treatment): Neither drug led to an alteration in the abundance in the phosphorylated species; also recorded: had no effect on the basal state of IGFR phosphorylation
abundance of active SFKs (src-family kinases (SFK)): reduced
abundance of active SFKs (src-family kinases (SFK); listed as Enprofylline): caused a reduction in the abundance of active SFKs
% motor neuron death, short term (acute) treatment ([2]; drug added 30 minutes prior to excitotoxic challenge, counted 24 hours later): ~40% and 46±4%
excitotoxic motor neuron death ([2]; drug for 4 days (added 4 and 2 days) prior to 100 μM kainic acid 1 h, SMI-32(+) motor neurons counted 24 h later): completely blocked the loss of SMI(+) neurons; also recorded: no excitotoxic motor neuron death
